# Test results reported in patent US20230302159A1, “COMPOUNDS AND COMPOSITIONS FOR TUMOR DETECTION AND SURGICAL GUIDANCE” (Cornell University, priority 2020, published 2023).
# Key:
# OVASAHO cells = assay: In vitro fluorescence microscopy and intracellular localization; format: cell-based; settings: 2 μM, 1 hr; for Pearson value, overlap with the mitochondria tracker: co-staining with mitochondria tracker; for cellular fluorescence image in the presence of dye-containing medium (no washing): without washing
# Experimental: Evaluation of CypH-11 in cancer cells. An ovarian cancer cell line, OVASAHO, was used to evaluate the performance of CypH-11, CypH-1, and Cy7. OVASAHO cells were incubated with the respective probe (2 μM) for 1 hr, and the cellular fluorescence images were captured in the presence of the dye-containing medium (FIG. 13A). […] This distinct difference is because of the pH sensitivity of CypH-11 and CypH-1. Both of them have low fluorescence in the cell culture medium (pH=7.4), but their fluorescence is turned on upon entering the cellular acidic compartments. […] After washing with a fresh culture medium, the cell images were captured again (FIG. 19). […] The intracellular distribution of dyes was investigated by co-staining with mitochondrial, lysosomal and nuclear trackers (FIG. 13B).
# In vitro fluorescence microscopy. OVASAHO cells were used to compare the cellular performance and cellular distribution of CypH-11, CypH-1, and Cy7. OVASAHO cells (1.0×10^4) were seeded on a 96-well black plate (Corning, NY) and incubated in the supplemented medium for 24 hrs. Compounds (2 μM) were added and the cells were incubated for 1 hr. Before PBS washing, the cellular fluorescence images were captured with a fluorescence microscope (Cy7 filter, excitation: 690-730 nm and emission: 770-850 nm). After PBS washing (3×), the cellular images were captured again. For the co-localization experiment, OVASAHO cells (5.0×10^3) were incubated on a 96 well plate (ibiTreat, 180 μm coverslip, ibidi) with a clear and flat bottom. After treatment with CypH-11 (2 μM) or CypH-1 (2 μM) for 1 hr, the cells were washed with medium (3×). The cells were stained with Mitoview Green (Biotium, Parkway Fremont, CA) for 15 min or Lysoview 488 (Biotium) for 30 min. After washing with medium (3×), cells were further stained with DAPI (Invitrogen) for 10 min. The fluorescence images were captured using a fluorescence microscope (EVOS) after replacing the medium with a fresh cell culture medium. CypH-11 and CypH-1 images were obtained with a Cy7 filter, DAPI images with a DAPI filter (excitation: 352-402 nm and emission: 417-477 nm), Mitoview Green and Lysoview 488 images with a GFP filter (excitation: 457-487 nm and emission: 502-538 nm).
# [1] = Relative quantum yield measurement against ICG standard; format: physicochemical; settings: at pH 4.0, PBS
# Experimental: Spectroscopic analysis. Stock solutions (1 mM in DMSO) of CypH-11, CypH-1, and Cy7 were stored at a −30° C. freezer and used for the following experiments. For the pKa measurement, the respective compound was diluted in 20 mM phosphate-buffered solution (PBS, pH 2.0-11.0) to a final concentration of 2 μM. The fluorescence intensity (λex=725 nm and λcm=785 nm) was measured on a plate reader (Tecan Infinite M1000 Pro), and the fluorescence images were recorded with a fluorescence imaging system (Bruker In-vivo F Pro). For the quantum yield measurement, indocyanine green (ICG, Φ=1.2% in water) was used as the standard compound. The respective compound (0.4, 0.8, 1.2, 1.6, and 2.0 μM) in PBS solutions (pH=4.0 and pH=7.4) was measured using a Cary 60 UV-Vis spectrophotometer and Cary Eclipse fluorescence spectrophotometer (Agilent). The slope of fluorescence vs absorbance was compared with that of ICG to calculate the relative quantum yield.
smiles,measurement,setting,value
"CN(C)c1ccc(OC2=C(/C=C/C3=[N+](C)c4ccccc4C3(C)C)CCC/C2=C\C=C2\N(C)c3ccccc3C2(C)C)cc1.[Cl-] [CypH-1, reference compound]",cellular fluorescence after washing,OVASAHO cells,high fluorescence
same,"Pearson value, overlap with the mitochondria tracker",OVASAHO cells,0.90
same,cellular fluorescence image in the presence of dye-containing medium (no washing),OVASAHO cells,Strong intracellular fluorescence and low medium fluorescence
CC(C)N(C)c1ccc(OC2=C(/C=C/C3=[N+](C(C)C)c4ccccc4C3(C)C)CCC/C2=C\C=C2\N(C(C)C)c3ccccc3C2(C)C)cc1.[I-] [CypH-11],cellular fluorescence after washing,OVASAHO cells,high fluorescence
same,"Pearson value, overlap with the mitochondria tracker",OVASAHO cells,0.70
same,cellular fluorescence image in the presence of dye-containing medium (no washing),OVASAHO cells,Strong intracellular fluorescence and low medium fluorescence
same,quantum yield (Φ),[1],3.3%
